Test results published in US20250074901A1, “NOVEL HETEROARYL COMPOUNDS” (ICAGEN, LLC, priority 2021, published 2025).

Target: T1, Kv7.2 (Homo sapiens, UniProt O43526)
T1 construct: expressed in transfected cells
Test: Activation of Kv7.2 (in vitro assay, concentration response curve)
Format: cell-based
Conditions: for Emax: Kv7.2 activation max %; for EC50: activation of Kv7.2
How it was run: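 EC50 is the half-maximal effective concentration, relative to the Emax observed for each compound in this in vitro assay. It was derived from concentration–response curves of the agonistic effect measured over a series of concentrations.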

O=C(NCc1cc(OC(F)F)ncc1F)N[C@H]1C[C@H](C(F)(F)F)C1 [Example 277, 1-[[2-(difluoromethoxy)-5-fluoropyridin-4-yl]methyl]-3-[(1r,3r)-3-(trifluoromethyl)cyclobutyl]urea]
Emax: 58%
EC50: 330 nM

O=C(NCc1cc(OCC(F)(F)F)ncn1)N[C@H]1C[C@H](C(F)(F)F)C1 [Example 279, 1-[[6-(2,2,2-trifluoroethoxy)pyrimidin-4-yl]methyl]-3-[(1r,3r)-3-(trifluoromethyl)cyclobutyl]urea]
Emax: 75%
EC50: 170 nM

Cc1cccc(NC(=O)NC(CO)c2ccnc(OC(F)F)c2)c1 (centres unmarked) [Example 280, 1-[1-[2-(difluoromethoxy)pyridin-4-yl]-2-hydroxyethyl]-3-(3-methylphenyl)urea]
Emax: 67%
EC50: 250 nM

COCC(Oc1cc(CNC(=O)N[C@H]2C[C@H](C(F)(F)F)C2)ccn1)C(F)(F)F (some centres unmarked) [Example 281, 1-[[2-(1,1,1-trifluoro-3-methoxypropan-2-yl)oxypyridin-4-yl]methyl]-3-[3-(trifluoromethyl)cyclobutyl]urea]
Emax: 59%
EC50: 200 nM

O=C(NCc1cc(OC(F)F)ncn1)N[C@H]1C[C@H](C(F)(F)F)C1 [Example 282, 1-[[6-(difluoromethoxy)pyrimidin-4-yl]methyl]-3-[(1r,3r)-3-(trifluoromethyl)cyclobutyl]urea]
Emax: 78%
EC50: 90 nM

O=C(NC(CO)c1ccnc(OCC(F)(F)F)c1)NC12CC(F)(C1)C2 (centres unmarked) [Example 283, 1-(3-fluoro-1-bicyclo[1.1.1]pentanyl)-3-[2-hydroxy-1-[2-(2,2,2-trifluoroethoxy)pyridin-4-yl]ethyl]urea]
Emax: 68%
EC50: 490 nM

O=C(NCc1ccnc(OCC(F)(F)F)c1)NCC1(C(F)(F)F)CC1 [Example 284, 1-[[2-(2,2,2-trifluoroethoxy)pyridin-4-yl]methyl]-3-[[1-(trifluoromethyl)cyclopropyl]methyl]urea]
Emax: 82%
EC50: 990 nM

O=C(NCc1ccnc(OCC(F)(F)F)c1)NC(C(F)(F)F)C(F)(F)F [Example 285, 1-(1,1,1,3,3,3-hexafluoropropan-2-yl)-3-[[2-(2,2,2-trifluoroethoxy)pyridin-4-yl]methyl]urea]
Emax: 87%
EC50: 380 nM

C[C@@H](O)C(NC(=O)N[C@H]1C[C@H](C(F)(F)F)C1)c1ccnc(OC(F)F)c1 (stereo partly drawn) [Example 286, 1-[(2R)-1-[2-(difluoromethoxy)pyridin-4-yl]-2-hydroxypropyl]-3-[(1r,3r)-3-(trifluoromethyl)cyclobutyl]urea]
Emax: 66%
EC50: 550 nM

C[C@H](O)C(NC(=O)N[C@H]1C[C@H](C(F)(F)F)C1)c1ccnc(OC(F)F)c1 (stereo partly drawn) [Example 287, 1-[(2S)-1-[2-(difluoromethoxy)pyridin-4-yl]-2-hydroxypropyl]-3-[(1r,3r)-3-(trifluoromethyl)cyclobutyl]urea]
Emax: 96%
EC50: 740 nM

O=C(NCc1ccnc(OC(F)F)c1)N[C@@H]1CC[C@H](OC(F)(F)F)C1 [Example 288, 1-[[2-(difluoromethoxy)pyridin-4-yl]methyl]-3-[(1R,3S)-3-(trifluoromethoxy)cyclopentyl]urea]
Emax: 68%
EC50: 250 nM

O=C(NCc1ccnc(OC(F)F)c1)NCC(O)C12CC(F)(C1)C2 (centres unmarked) [Example 289, 1-[[2-(difluoromethoxy)pyridin-4-yl]methyl]-3-[2-(3-fluoro-1-bicyclo[1.1.1]pentanyl)-2-hydroxyethyl]urea]
Emax: 40%
EC50: 980 nM

O=C(NCc1ccnc(OCC(F)(F)F)c1)NCC(O)C12CC(F)(C1)C2 (centres unmarked) [Example 290, 1-[2-(3-fluoro-1-bicyclo[1.1.1]pentanyl)-2-hydroxyethyl]-3-[[2-(2,2,2-trifluoroethoxy)pyridin-4-yl]methyl]urea]
Emax: 81%
EC50: 890 nM

O=C(NCc1ccnc(OC(F)F)c1)NCC(O)C12CC(C1)C2 (centres unmarked) [Example 291, 1-[2-(1-bicyclo[1.1.1]pentanyl)-2-hydroxyethyl]-3-[[2-(difluoromethoxy)pyridin-4-yl]methyl]urea]
Emax: 64%
EC50: 460 nM

O=C(NCc1ccnc(OCC(F)(F)F)c1)NCC(O)C12CC(C1)C2 (centres unmarked) [Example 292, 1-[2-(1-bicyclo[1.1.1]pentanyl)-2-hydroxyethyl]-3-[[2-(2,2,2-trifluoroethoxy)pyridin-4-yl]methyl]urea]
Emax: 62%
EC50: 620 nM

O=C(NCc1ccnc(OCC(F)(F)F)c1)N[C@H]1C[C@H](C(F)F)C1 [Example 293, 1-[(1r,3r)-3-(difluoromethyl)cyclobutyl]-3-[[2-(2,2,2-trifluoroethoxy)pyridin-4-yl]methyl]urea]
Emax: 93%
EC50: 610 nM
